Assay results reported in patent US8859549B2, “Potassium channel modulators” (AbbVie, Inc., priority 2011, dated 2014).

Biological target: T1, KCNQ 2/3 channels (Homo sapiens, UniProt O43525+O43526)
T1 construct: expressed in transfected cells; host or cells: HEK293
Assay: KCNQ 2/3 channel activation, thallium flux FLIPR assay (BTC-AM dye)
Format: cell-based
Conditions: for Emax: HEK293, maximum response relative to the response of 10 μM retigabine (set at 100%), read-out: % MAX; for EC50: HEK293 cells stably expressing human KCNQ2 and KCNQ3 subunits, thallium-induced fluorescence, 4 min compound incubation
Method: The following example describes the assay that can be used to identify compounds that activate KCNQ 2/3 channels.
HEK293 cells stably expressing human KCNQ2 and KCNQ3 subunits were seeded in 96-well, black-walled, clear-bottomed, poly-D-lysine coated plates (BD Biosciences, Bedford, Mass.) at a density of 1×10^5 cells per well 24 hours before the assay. On the assay day, BTC-AM dye (Invitrogen, Carlsbad, Calif.) was loaded into the cells by replacing the cell culture medium with 55 μL/well of 3 μg/mL dye in DPBS. Dye loading was allowed to proceed for 2 hours at room temperature and then cells were washed twice with 50 μL/well of assay buffer (in mM: 10 HEPES pH 7.3, 5 glucose, 140 Na-gluconate, 2.5 K-gluconate, 3.6 Ca-gluconate, 2 MgSO4, 0.1 Ouabain) to remove unloaded dye. Cells were incubated in 50 μL of assay buffer before loading onto a FLIPR system (Molecular Devices, Sunnyvale, Calif.). Various concentrations of compounds to be assayed were added to the cells in 50 μL of assay buffer and incubated for 4 minutes. The fluorescence signal was initiated by adding 100 μL of assay buffer containing 6 mM TlNO3 and 10 mM K2SO4. Fluors were excited using the 488-nm line of an argon laser and emission was filtered using a 540±30 nm bandpass filter. Fluorescent signals were recorded for 3 minutes. Sums of the responses over basal responses were plotted versus concentrations of test compounds to obtain an EC50 value. The maximum response for each test compound was determined relative to the response produced by 10 μM retigabine. The maximum response of retigabine at 10 μM was set at 100%.

Compound	Emax (HEK293 KCNQ2/KCNQ3 cells)	EC50	% MAX (maximum response relative to the response of 10 μM retigabine (set at 100%), HEK293 KCNQ2/KCNQ3 cells)
O=C(CC1CC2CCC1C2)Nn1nc(N2CCOCC2)c2ccccc2c1=O (racemic) [Example 3, (±)-2-[(exo)-bicyclo[2.2.1]hept-2-yl]-N-[4-(morpholin-4-yl)-1-oxophthalazin-2(1H)-yl]acetamide]	142%	331 nM	–
O=C(CC1CC2CCC1C2)Nn1nc(-c2ccc(Cl)nc2)c2ccccc2c1=O (racemic) [Example 4, (±)-2-[(exo)-bicyclo[2.2.1]hept-2-yl]-N-[4-(6-chloropyridin-3-yl)-1-oxophthalazin-2(1H)-yl]acetamide]	133%	60.6 nM	–
O=C(CC1CC2CCC1C2)Nn1nc(C2=CCOCC2)c2ccccc2c1=O (racemic) [Example 6, (±)-2-[(exo)-bicyclo[2.2.1]hept-2-yl]-N-[4-(3,6-dihydro-2H-pyran-4-yl)-1-oxophthalazin-2(1H)-yl]acetamide]	140%	515 nM	–
O=C(CC1CC2CCC1C2)Nn1nc(-c2cccnc2)c2ccccc2c1=O (racemic) [Example 8, (±)-2-[(exo)-bicyclo[2.2.1]hept-2-yl]-N-[1-oxo-4-(pyridin-3-yl)phthalazin-2(1H)-yl]acetamide]	129%	455 nM	–
O=C(CC1CC2CCC1C2)Nn1nc(-c2cccs2)c2ccccc2c1=O (racemic) [Example 12, (±)-2-[(exo)-bicyclo[2.2.1]hept-2-yl]-N-[1-oxo-4-(thiophen-2-yl)phthalazin-2(1H)-yl]acetamide]	136%	67.4 nM	–
Cc1ccsc1-c1nn(NC(=O)CC2CC3CCC2C3)c(=O)c2ccccc12 (racemic) [Example 16, (±)-2-[(exo)-bicyclo[2.2.1]hept-2-yl]-N-[4-(3-methylthiophen-2-yl)-1-oxophthalazin-2(1H)-yl]acetamide]	140%	116 nM	–
O=C(CC1CC2CCC1C2)Nn1nc(-c2ccccn2)c2ccccc2c1=O (racemic) [Example 19, (±)-2-[(exo)-bicyclo[2.2.1]hept-2-yl]-N-[1-oxo-4-(pyridin-2-yl)phthalazin-2(1H)-yl]acetamide]	146%	168 nM	–
O=C(CC1CC2CCC1C2)Nn1nc(N2CCCC2)c2ccccc2c1=O (racemic) [Example 23, (±)-2-[(exo)-bicyclo[2.2.1]hept-2-yl]-N-[1-oxo-4-(pyrrolidin-1-yl)phthalazin-2(1H)-yl]acetamide]	147%	62.8 nM	–
O=C(CC1CC2CCC1C2)Nn1nc(N2CCCCC2)c2ccccc2c1=O (racemic) [Example 25, (±)-2-[(exo)-bicyclo[2.2.1]hept-2-yl]-N-[1-oxo-4-(piperidin-1-yl)phthalazin-2(1H)-yl]acetamide]	144%	25.3 nM	–
COc1ccc(-c2nn(NC(=O)CC3CC4CCC3C4)c(=O)c3ccccc23)cn1 (racemic) [Example 26, (±)-2-[(exo)-bicyclo[2.2.1]hept-2-yl]-N-[4-(6-methoxypyridin-3-yl)-1-oxophthalazin-2(1H)-yl]acetamide]	137%	306 nM	–
O=C(CC1CC2CCC1C2)Nn1nc(C2CCOCC2)c2ccccc2c1=O (racemic) [Example 28, (±)-2-[(exo)-bicyclo[2.2.1]hept-2-yl]-N-[1-oxo-4-(tetrahydro-2H-pyran-4-yl)phthalazin-2(1H)-yl]acetamide]	145%	447 nM	–
O=C(CC1CC2CCC1C2)Nn1nc(-c2ccnc(Cl)c2)c2ccccc2c1=O (racemic) [Example 29, (±)-2-[(exo)-bicyclo[2.2.1]hept-2-yl]-N-[4-(2-chloropyridin-4-yl)-1-oxophthalazin-2(1H)-yl]acetamide]	137%	67.1 nM	–
O=C(CC1CC2CCC1C2)Nn1nc(Cc2ccc(Cl)nc2)c2ccccc2c1=O (racemic) [Example 30, (±)-2-[(exo)-bicyclo[2.2.1]hept-2-yl]-N-{4-[(6-chloropyridin-3-yl)methyl]-1-oxophthalazin-2(1H)-yl}acetamide]	122%	58.4 nM	–
O=C(CC1CC2CCC1C2)Nn1nc(NCc2ccccc2)c2ccccc2c1=O (racemic) [Example 34, (±)-N-[4-(benzylamino)-1-oxophthalazin-2(1H)-yl]-2-[(exo)-bicyclo[2.2.1]hept-2-yl]acetamide]	161%	142 nM	–
O=C(CC1CC2CCC1C2)Nn1nc(Nc2cccc(Cl)c2)c2ccccc2c1=O (racemic) [Example 35, (±)-2-[(exo)-bicyclo[2.2.1]hept-2-yl]-N-{4-[(3-chlorophenyl)amino]-1-oxophthalazin-2(1H)-yl}acetamide]	11.4%	–	–
CN(Cc1ccccc1)c1nn(NC(=O)CC2CC3CCC2C3)c(=O)c2ccccc12 (racemic) [Example 37, (±)-N-{4-[benzyl(methyl)amino]-1-oxophthalazin-2(1H)-yl}-2-[(exo)-bicyclo[2.2.1]hept-2-yl]acetamide]	160%	42.3 nM	–
O=C(CC1CC2CCC1C2)Nn1nc(Oc2ccccc2)c2ccccc2c1=O (racemic) [Example 39, (±)-2-[(exo)-bicyclo[2.2.1]hept-2-yl]-N-(1-oxo-4-phenoxyphthalazin-2(1H)-yl)acetamide]	150%	9.05 nM	–
O=C(CC1CC2CCC1C2)Nn1nc(C(=O)c2ccccc2)c2ccccc2c1=O (racemic) [Example 40, (±)-N-(4-benzoyl-1-oxophthalazin-2(1H)-yl)-2-[(exo)-bicyclo[2.2.1]hept-2-yl]acetamide]	135%	31.1 nM	–
CC(C)(C)OC(=O)NCc1nn(NC(=O)CC2CC3CCC2C3)c(=O)c2ccccc12 (racemic) [Example 44, (±)-tert-butyl[(3-{[(exo)-bicyclo[2.2.1]hept-2-ylacetyl]amino}-4-oxo-3,4-dihydrophthalazin-1-yl)methyl]carbamate]	116%	294 nM	–
N#Cc1cc(-c2nn(NC(=O)CC3CC4CCC3C4)c(=O)c3ccccc23)ccn1 (racemic) [Example 45, (±)-2-[(exo)-bicyclo[2.2.1]hept-2-yl]-N-[4-(2-cyanopyridin-4-yl)-1-oxophthalazin-2(1H)-yl]acetamide]	146%	381 nM	–
O=C(CC1CC2CCC1C2)Nn1nc(-c2ccnc(O)c2)c2ccccc2c1=O (racemic) [Example 46, (±)-2-[(exo)-bicyclo[2.2.1]hept-2-yl]-N-[4-(2-hydroxypyridin-4-yl)-1-oxophthalazin-2(1H)-yl]acetamide]	13.4%	–	–
CN(C)c1ccc(-c2nn(NC(=O)CC3CC4CCC3C4)c(=O)c3ccccc23)cn1 (racemic) [Example 47, (±)-2-[(exo)-bicyclo[2.2.1]hept-2-yl]-N-{4-[6-(dimethylamino)pyridin-3-yl]-1-oxophthalazin-2(1H)-yl}acetamide]	122%	378 nM	–
Cc1cc(-c2nn(NC(=O)CC3CC4CCC3C4)c(=O)c3ccccc23)ccn1 (racemic) [Example 50, (±)-2-[(exo)-bicyclo[2.2.1]hept-2-yl]-N-[4-(2-methylpyridin-4-yl)-1-oxophthalazin-2(1H)-yl]acetamide]	151%	1130 nM	–
CCOC(=O)c1nn(NC(=O)CC2CC3CCC2C3)c(=O)c2ccccc12 (racemic) [Example 51, (±)-ethyl 3-{[(exo)-bicyclo[2.2.1]hept-2-ylacetyl]amino}-4-oxo-3,4-dihydrophthalazine-1-carboxylate]	171%	275 nM	–
O=C(CC1CC2CCC1C2)Nn1nc(-c2ccc(F)nc2)c2ccccc2c1=O (racemic) [Example 54, (±)-2-[(exo)-bicyclo[2.2.1]hept-2-yl]-N-[4-(6-fluoropyridin-3-yl)-1-oxophthalazin-2(1H)-yl]acetamide]	183%	408 nM	–
O=C(CC1CC2CCC1C2)Nn1nc(C(=O)O)c2ccccc2c1=O (racemic) [Example 55, (±)-3-{[(exo)-bicyclo[2.2.1]hept-2-ylacetyl]amino}-4-oxo-3,4-dihydrophthalazine-1-carboxylic acid]	149%	1370 nM	–
CN(C)C(=O)c1nn(NC(=O)CC2CC3CCC2C3)c(=O)c2ccccc12 (racemic) [Example 56, (±)-3-{[(exo)-bicyclo[2.2.1]hept-2-ylacetyl]amino}-N,N-dimethyl-4-oxo-3,4-dihydrophthalazine-1-carboxamide]	84.9%	–	–
O=C(CC1CC2CCC1C2)Nn1nc(Sc2ccccc2)c2ccccc2c1=O (racemic) [Example 59, (±)-2-[(exo)-bicyclo[2.2.1]hept-2-yl]-N-[1-oxo-4-(phenylsulfanyl)phthalazin-2(1H)-yl]acetamide]	192%	14.6 nM	–
CC1CN(c2nn(NC(=O)CC3CC4CCC3C4)c(=O)c3ccccc23)CC(C)O1 (racemic) [Example 64, (±)-2-[(exo)-bicyclo[2.2.1]hept-2-yl]-N-[4-(2,6-dimethylmorpholin-4-yl)-1-oxophthalazin-2(1H)-yl]acetamide]	–	90.9 nM	144%
